Test results from US20030083484A1, “Antisense modulation of short heterodimer partner-1 expression” (priority 2001, published 2003).
Strand notation (5' to 3'): a small letter for the sugar, then the base; units joined by * are phosphorothioate-linked, units joined directly phosphodiester-linked; [ ] holds rarer units or linkages, { } end groups; capitals alone tell only the bases. e = 2'-O-(2-methoxyethyl) (MOE); [5mC] = 5-methylcytosine; d = 2'-deoxy (DNA)

Columns and labels:
[1] = tested on: mouse short heterodimer partner-1 mRNA; assay: Dose-response study: inhibition of mouse short heterodimer partner-1 mRNA levels in primary hepatocyte cells, quantitative real-time PCR; format: cell-based; settings: averages from two experiments
Description: (§1) Primary mouse hepatocytes were prepared from CD-1 mice purchased from Charles River Labs (Wilmington, Mass.) and were routinely cultured in Hepatoyte Attachment Media (Gibco) supplemented with 10% Fetal Bovine Serum (Gibco/Life Technologies, Gaithersburg, Md.), 250 nM dexamethasone (Sigma), and 10 nM bovine insulin (Sigma). Cells were seeded into 96-well plates (Falcon-Primaria #3872) at a density of 10000 cells/well for use in RT-PCR analysis.
(§2) Cells were harvested 16-24 hours after oligonucleotide treatment.
(§3) Vacuum was applied for 15 seconds. […] The elution step was repeated with an additional 60 μL water.
(§4) Total RNA is quantified using RiboGreen™ RNA quantification reagent from Molecular Probes.
(§5) Probes and primers to mouse short heterodimer partner-1 were designed to hybridize to a mouse short heterodimer partner-1 sequence, using published sequence information (GenBank accession number L75567, incorporated herein as SEQ ID NO: 10).
In accordance with the present invention, a subset of the antisense oligonucleotides in Example 16 were further investigated in dose-response studies. Treatment doses were 50, 150 and 300 nM.

[2] = tested on: mouse short heterodimer partner-1 mRNA; assay: Inhibition of mouse short heterodimer partner-1 mRNA levels in primary hepatocytes, quantitative real-time PCR; format: cell-based; set-up: concentration or dose not given beside the values; settings: averages from two experiments
Description: as §1, §2, §3, §4, §5
All cytidine residues are 5-methylcytidines. […] Data are averages from two experiments. If present, “N.D.” indicates “no data”.

Substance: 148286 (antisense eA*eG*eT*e[5mC]*eA*dT*d[5mC]*dA*dA*dG*dG*dG*d[5mC]*dT*dT*eG*e[5mC]*eT*eG*eG) [compound 148286]
- Percent Inhibition of mouse short heterodimer partner-1 mRNA levels ([1]; 50 nM oligonucleotide): 42%
- Percent Inhibition of mouse short heterodimer partner-1 mRNA levels ([1]; 150 nM oligonucleotide): 58%
- Percent Inhibition of mouse short heterodimer partner-1 mRNA levels ([1]; 300 nM oligonucleotide): 80%
- % INHIB (inhibition of mouse short heterodimer partner-1 mRNA levels) [2]: 71%

Substance: 148284 (antisense eG*eA*eG*eG*e[5mC]*dA*d[5mC]*d[5mC]*dA*dG*dA*d[5mC]*dT*d[5mC]*d[5mC]*eA*eT*eT*e[5mC]*e[5mC]) [compound 148284]
- Percent Inhibition of mouse short heterodimer partner-1 mRNA levels ([1]; 50 nM oligonucleotide): 6%
- Percent Inhibition of mouse short heterodimer partner-1 mRNA levels ([1]; 150 nM oligonucleotide): 55%
- Percent Inhibition of mouse short heterodimer partner-1 mRNA levels ([1]; 300 nM oligonucleotide): 86%
- % INHIB (inhibition of mouse short heterodimer partner-1 mRNA levels) [2]: 77%

Substance: 148287 (antisense eG*eT*eT*e[5mC]*eT*dG*dT*dA*d[5mC]*dA*dA*dA*dG*dT*d[5mC]*eA*eG*eG*eA*eG) [compound 148287]
- Percent Inhibition of mouse short heterodimer partner-1 mRNA levels ([1]; 50 nM oligonucleotide): 44%
- Percent Inhibition of mouse short heterodimer partner-1 mRNA levels ([1]; 150 nM oligonucleotide): 71%
- Percent Inhibition of mouse short heterodimer partner-1 mRNA levels ([1]; 300 nM oligonucleotide): 89%
- % INHIB (inhibition of mouse short heterodimer partner-1 mRNA levels) [2]: 74%
